This is an account of results in US10022387B2, “Aza-heteroaryl compounds as PI3K-gamma inhibitors” (Incyte Corporation, priority 2015, dated 2018).

Where a name gives a salt, the structure may show the parent alone.

Sequence of PI3Kδ (p110δ/p85α) Recombinant Human Protein (O00329 whole entry): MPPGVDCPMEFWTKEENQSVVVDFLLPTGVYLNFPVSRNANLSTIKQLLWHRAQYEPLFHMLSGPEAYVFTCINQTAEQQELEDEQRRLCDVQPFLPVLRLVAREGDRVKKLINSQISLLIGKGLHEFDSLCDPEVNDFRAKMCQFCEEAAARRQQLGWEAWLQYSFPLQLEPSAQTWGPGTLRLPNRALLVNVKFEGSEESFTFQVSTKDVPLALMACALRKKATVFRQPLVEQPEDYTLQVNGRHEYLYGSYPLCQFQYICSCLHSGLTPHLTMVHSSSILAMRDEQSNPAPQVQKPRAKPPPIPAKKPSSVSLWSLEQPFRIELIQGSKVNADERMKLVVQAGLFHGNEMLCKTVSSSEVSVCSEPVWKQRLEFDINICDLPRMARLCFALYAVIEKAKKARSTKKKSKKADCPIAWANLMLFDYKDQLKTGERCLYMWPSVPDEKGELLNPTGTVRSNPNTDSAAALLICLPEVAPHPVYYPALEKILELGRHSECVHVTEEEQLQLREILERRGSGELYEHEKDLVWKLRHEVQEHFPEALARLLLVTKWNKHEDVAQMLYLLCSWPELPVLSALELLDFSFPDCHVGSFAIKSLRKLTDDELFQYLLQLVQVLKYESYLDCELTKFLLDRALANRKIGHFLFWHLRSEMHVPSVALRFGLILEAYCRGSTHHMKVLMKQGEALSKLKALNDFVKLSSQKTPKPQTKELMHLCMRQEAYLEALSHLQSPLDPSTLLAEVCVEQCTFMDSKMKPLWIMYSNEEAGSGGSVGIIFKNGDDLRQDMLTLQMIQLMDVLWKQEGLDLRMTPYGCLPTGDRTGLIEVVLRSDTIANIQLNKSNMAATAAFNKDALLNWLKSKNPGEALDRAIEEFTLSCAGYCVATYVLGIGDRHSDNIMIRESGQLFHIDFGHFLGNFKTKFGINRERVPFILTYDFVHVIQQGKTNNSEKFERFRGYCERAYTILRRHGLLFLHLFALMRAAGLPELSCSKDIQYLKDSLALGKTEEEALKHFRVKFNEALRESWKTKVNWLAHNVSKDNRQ
Sequence of PI3Kδ (p110δ/p85α) Recombinant Human Protein (P27986 whole entry partner): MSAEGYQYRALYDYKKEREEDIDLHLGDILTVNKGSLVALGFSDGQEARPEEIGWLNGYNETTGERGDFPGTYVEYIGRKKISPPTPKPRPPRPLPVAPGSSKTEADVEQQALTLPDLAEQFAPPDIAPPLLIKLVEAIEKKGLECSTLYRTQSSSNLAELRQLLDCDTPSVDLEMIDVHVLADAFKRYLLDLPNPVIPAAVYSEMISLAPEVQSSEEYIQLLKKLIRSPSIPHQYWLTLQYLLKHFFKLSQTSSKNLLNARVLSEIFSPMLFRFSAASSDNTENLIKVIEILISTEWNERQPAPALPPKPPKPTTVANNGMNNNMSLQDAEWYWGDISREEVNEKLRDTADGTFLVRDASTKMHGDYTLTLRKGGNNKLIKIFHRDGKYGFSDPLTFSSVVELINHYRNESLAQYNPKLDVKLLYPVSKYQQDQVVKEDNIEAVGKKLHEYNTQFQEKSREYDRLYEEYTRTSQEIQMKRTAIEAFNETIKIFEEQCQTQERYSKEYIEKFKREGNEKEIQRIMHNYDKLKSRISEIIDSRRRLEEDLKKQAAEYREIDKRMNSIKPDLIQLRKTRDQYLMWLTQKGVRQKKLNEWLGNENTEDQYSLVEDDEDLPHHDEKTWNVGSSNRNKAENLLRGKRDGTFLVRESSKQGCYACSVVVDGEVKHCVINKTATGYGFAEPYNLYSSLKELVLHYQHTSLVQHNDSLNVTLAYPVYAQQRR

The first test has as its system Phosphorylated Ribosomal Protein S6 (RPS6) in THP-1 cells. Kind of test: THP-1 RPS6 ELISA Assay. In kind it is cell-based. The note with it: Homo sapiens, 2 hours with compound, 10 nM MCP-1 for 15 minutes, read-out: THP p-RPS6 ELISA IC50. The protocol: To measure the Phosphorylated Ribosomal Protein S6 (RPS6) in cell lysates, THP-1 cells (Human Acute Monocytic Leukemia) are purchased from ATCC (Manassas, Va.) and maintained in RPMI with 10% FBS (Gibco/Life Technologies, Carlsbad, Calif.). For the assay, THP-1 cells are serum starved overnight in RPMI, then plated in RPMI (2×10^5 cells/well in 90 μL) into 96-well flat-bottom tissue culture treated plates (Corning, Corning, N.Y.), in the presence or absence of a concentration range of test compounds. Covered plates are incubated for 2 hours at 37° C., 5% CO2 then treated with or without 10 nM MCP-1 (MYBioSource, San Diego, Calif.) for 15 minutes at 37° C., 5% CO2. Plates are centrifuged at 1600 RPM and supernatants are removed. Cells are lysed in Lysis Buffer (Cell Signaling, Danvers, Mass.) with Protease Inhibitor (Calbiochem/EMD, Germany), PMSF (Sigma, St. Louis, Mo.), HALTS (Thermo Fisher, Rockford, Ill.) for 30 min on wet ice. Cell lysates are frozen at −80° C. before testing. The lysates are tested in the Human/Mouse/Rat Phospho-RPS6 ELISA (R&D Systems, Inc. Minn, Minn.). The plate is measured using a microplate reader (SpectraMax M5—Molecular Devices, LLC Sunnyvale, Calif.) set to 450 nm with a wavelength correction of 540. IC50 determination is performed by fitting the curve of inhibitor percent inhibition versus the log of the inhibitor concentration using the GraphPad Prism 5.0 software.
On the technique in general: ELISA stands for enzyme-linked immunosorbent assay.
For the compound `CC(C)S(=O)(=O)Nc1cncc(-c2ccc3nc(-c4nc5ccccc5[nH]4)oc3c2)c1` [Example 24, N-(5-(2-(1H-Benzo[d]imidazol-2-yl)benzo[d]oxazol-6-yl)pyridin-3-yl)propane-2-sulfonamide], the IC50 is no less than 5 µM. Turning to `CCS(=O)(=O)Nc1cc(-c2ccc3nc(-c4nc5ccccc5[nH]4)oc3c2)cnc1F` [Example 27, N-(5-(2-(1H-Benzo[d]imidazol-2-yl)benzo[d]oxazol-6-yl)-2-fluoropyridin-3-yl)ethanesulfonamide], the IC50 is less than 1 µM. Regarding `COc1cncc(-c2ccc3nc(-c4nc5ccccc5[nH]4)oc3c2)c1` [Example 4, 2-(1H-Benzo[d]imidazol-2-yl)-6-(5-methoxypyridin-3-yl)benzo[d]oxazole trifluoroacetate], the IC50 was less than 5 µM. In the case of `Cc1ncc(-c2ccc3nc(-c4nc5ccccc5[nH]4)oc3c2)cc1NS(=O)(=O)CC(F)(F)F` [Example 76, N-(5-(2-(1H-Benzo[d]imidazol-2-yl)benzo[d]oxazol-6-yl)-2-methylpyridin-3-yl)-2,2,2-trifluoroethanesulfonamide bis(trifluoroacetate)], the IC50 is less than 1 µM.

On to `O=S(=O)(Nc1cncc(-c2ccc3nc(-c4nc5ccccc5[nH]4)oc3c2)c1)c1ccc(F)cc1` [Example 17, N-(5-(2-(1H-Benzo[d]imidazol-2-yl)benzo[d]oxazol-6-yl)pyridin-3-yl)-4-fluorobenzenesulfonamide], for which the IC50 is less than 1 µM. On the same count and under the same terms, to `O=S(=O)(Nc1cncc(-c2ccc3nc(-c4nc5ccccc5[nH]4)oc3c2)c1)N1CCCCC1` [Example 20, N-(5-(2-(1H-Benzo[d]imidazol-2-yl)benzo[d]oxazol-6-yl)pyridin-3-yl)piperidine-1-sulfonamide] belongs less than 5 µM. Consider `Cc1n[nH]c2ccc(-c3ccc4nc(-c5nc6ccccc6[nH]5)oc4c3)cc12` [Example 50, 2-(1H-Benzimidazol-2-yl)-6-(3-methyl-1H-indazol-5-yl)-1,3-benzoxazole], for which the IC50 was no less than 5 µM. In the case of `CCS(=O)(=O)Nc1cc(-c2ccc3nc(-c4nc(C)c(C)[nH]4)oc3c2)cnc1OC` [Example 65, N-(5-(2-(4,5-Dimethyl-1H-imidazol-2-yl)benzo[d]oxazol-6-yl)-2-methoxypyridin-3-yl)ethanesulfonamide bis(trifluoroacetate)], the IC50 was less than 1 µM.

Regarding `O=S(=O)(Nc1cc(-c2ccc3nc(-c4nc5ccccc5[nH]4)oc3c2)cnc1Cl)c1ccc(F)cc1` [Example 29, N-(5-(2-(1H-Benzo[d]imidazol-2-yl)benzo[d]oxazol-6-yl)-2-chloropyridin-3-yl)-4-fluorobenzene-sulfonamide], the IC50 is less than 1 µM. Still for that read-out and setting: then `CCS(=O)(=O)Nc1cncc(-c2ccc3nc(-c4nc5ccccc5[nH]4)oc3c2)c1` [Example 18, N-(5-(2-(1H-Benzo[d]imidazol-2-yl)benzo[d]oxazol-6-yl)pyridin-3-yl)ethanesulfonamide], with no less than 5 µM. Take `CCn1ncc2ccc(-c3ccc4nc(-c5nc6ccccc6[nH]5)oc4c3)cc21` [Example 54, 2-(1H-Benzimidazol-2-yl)-6-(1-ethyl-1H-indazol-6-yl)-1,3-benzoxazole bis(trifluoroacetate)]: the IC50 is no less than 5 µM.

In the case of `OC(c1cncc(-c2ccc3nc(-c4nc5ccccc5[nH]4)oc3c2)c1)C(F)(F)F` (stereo not drawn) [Example 74, 1-(5-(2-(1H-Benzo[d]imidazol-2-yl)benzo[d]oxazol-6-yl)pyridin-3-yl)-2,2,2-trifluoroethanol bis(trifluoroacetate)], the IC50 is no less than 5 µM. The same measure, in the same setting: then `CCS(=O)(=O)Nc1cc(-c2ccc3nc(-c4nc5c([nH]4)CCCC5)oc3c2)cnc1OC` [Example 66, N-(2-Methoxy-5-(2-(4,5,6,7-tetrahydro-1H-benzo[d]imidazol-2-yl)benzo[d]oxazol-6-yl)pyridin-3-yl)ethanesulfonamide], with less than 5 µM; and `CCS(=O)(=O)Nc1cc(-c2ccc3nc(-c4nc5ccccc5[nH]4)oc3c2)cnc1OC` [Example 79, N-(5-(2-(1H-Benzo[d]imidazol-2-yl)benzo[d]oxazol-6-yl)-2-methoxypyridin-3-yl)ethanesulfonamide bis(trifluoroacetate)], with less than 1 µM. Same read-out and setting: to `CP(C)(=O)c1cncc(-c2ccc3nc(-c4nc5ccccc5[nH]4)oc3c2)c1` [Example 72, 2-(1H-Benzo[d]imidazol-2-yl)-6-(5-(dimethylphosphoryl)pyridin-3-yl)benzo[d]oxazole bis(trifluoroacetate)] belongs no less than 5 µM.

On to `CS(=O)(=O)c1cncc(-c2ccc3nc(-c4nc5ccccc5[nH]4)oc3c2)c1` [Example 36, 2-(1H-Benzo[d]imidazol-2-yl)-6-(5-(methylsulfonyl)pyridin-3-yl)benzo[d]oxazole], for which the IC50 is less than 5 µM. The same measure, in the same setting: to `CCn1ncc2ncc(-c3ccc4nc(-c5nc6ccccc6[nH]5)oc4c3)cc21` [Example 57, 6-[2-(1H-Benzimidazol-2-yl)-1,3-benzoxazol-6-yl]-1-ethyl-1H-pyrazolo[4,3-b]pyridine tris(trifluoroacetate)] belongs no less than 5 µM.

A further test concerns the target PI3Kδ (p110δ/p85α) Recombinant Human Protein (Homo sapiens (Human), UniProt O00329). Kind of test: PI3Kδ Scintillation Proximity Assay. In kind it is biochemical. The note with it: 20 μM PIP2, 2 μM ATP, 3.4 nM PI3Kδ, 120 min; read-out: PI3K-delta SPA IC50. The source says: [γ-^33P]ATP (10 mCi/mL) and Wheat Germ Agglutinin (WGA) YSi SPA Scintillation Beads was purchased from Perkin-Elmer (Waltham, Mass.). Lipid kinase substrate, D-myo-Phosphatidylinositol 4,5-bisphosphate (PtdIns(4,5)P2)D (+)-sn-1,2-di-O-octanoylglyceryl, 3-O-phospho linked (PIP2), CAS 204858-53-7, was purchased from Echelon Biosciences (Salt Lake City, Utah). PI3Kδ (p110δ/p85α) Recombinant Human Protein was purchased from Eurofins (St. Charles, Mo.). ATP, MgCl2, DTT, EDTA, MOPS and CHAPS were purchased from Sigma-Aldrich (St. Louis, Mo.).
The kinase reaction was conducted in polystyrene 384-well Greiner Bio-one white plate from Thermo Fisher Scientific in a final volume of 25 μL. Inhibitors were first diluted serially in DMSO and added to the plate wells before the addition of other reaction components. The final concentration of DMSO in the assay was 2%. The PI3Kδ assay was carried out at room temperature in 20 mM MOPS, pH 6.7, 10 mM MgCl2, 5 mM DTT and CHAPS 0.03%. Reactions were initiated by the addition of ATP, the final reaction mixture consisted of 20 μM PIP2, 2 μM ATP, 0.5 μCi [γ-^33P] ATP, 3.4 nM PI3Kδ. […] After the plate sealing, plates were shaken overnight at room temperature and centrifuged at 1500 rpm for 10 min, the radioactivity of the product was determined by scintillation counting on Topcount (Perkin-Elmer). […]
On the technique in general: In a scintillation proximity assay essentially only radioactivity close to the scintillant gives light.
In the case of `CCS(=O)(=O)Nc1cncc(-c2ccc3nc(-c4nc5ccccc5[nH]4)oc3c2)c1` [Example 18, N-(5-(2-(1H-Benzo[d]imidazol-2-yl)benzo[d]oxazol-6-yl)pyridin-3-yl)ethanesulfonamide], the IC50 was less than 1 µM.
